Here are results for 18 molecules from US9340506B2, “Acetamide derivatives as glucokinase activators, their process and medicinal applications” (ADVINUS THERAPEUTICS LIMITED, priority 2007, dated 2016).

As a reminder, the EC50 is the midpoint of the concentration-response curve. By Emax is commonly meant the greatest response seen or fitted, relative to the assay's reference.

The target of series [1] is purified human recombinant GK (Homo sapiens (Human), UniProt P35557). Briefly: Glucokinase activity assay (coupled enzymatic, G6PD/NADH absorbance at 340 nm). The following applies: for EC50: EC50 of % change in S0.5 of glucokinase for glucose, sigmoidal fit, read-out: EC50 (with respect to % ΔS0.5); for Emax: Emax of % change in S0.5 of glucokinase for glucose, vehicle S0.5 = 0%, 0 mM glucose = 100%, read-out: % Emax (with respect to % ΔS0.5). The series is classed as biochemical. The text has this:
The glucokinase (GK) assay is a coupled enzymatic assay. GK catalyzes the first step of glycolysis, the conversion of glucose to glucose-6-phosphate (G6P) in the presence of ATP. G6P in turn is converted by glucose-6-phosphate dehydrogenase (G6PD) to 6-phosphogluconate, a process that requires NAD, resulting in NADH formation. Since the GK-catalyzed step is the rate-limiting step of this coupled enzymatic process, the rate of accumulation of 6-phosphogluconate and NADH is directly proportional to the rate of glucose phosphorylation by GK. The rate of the GK-catalyzed reaction can therefore be measured by monitoring the increase in NADH absorbance at 340 nm.
The assay is carried out according to the protocol outlined in Hariharan et al (1997), Diabetes 46: 11-16. Briefly, the test compounds are incubated in a reaction mix containing 25 mM HEPES (pH 7.2), 10 mM MgCl2, 100 mM KCl, 5 mM ATP, 2 mM DTT, 0.5 mM NAD, 1 U/mL Leuconostoc mesenteroides G6PD, 0.3 U/mL of purified human recombinant GK, and different concentrations of glucose. Enzymatic activity is calculated from the initial reaction velocity, measured from the change in NADH absorbance as a function of time.
Compounds described in formula (I), in concentration ranges from 1.0 nM to 500 μM, are tested in the purified human recombinant glucokinase assay described above.
A compound is considered to be a glucokinase activator if it, in its testable range of concentrations, yields a higher rate of glucose phosphorylation than in its absence at a particular glucose concentration, for example at 5 mM glucose.
Compounds of general formula (I) are tested in the in vitro GK enzymatic assay to monitor dose-dependent effect on glucokinase activation (in kinetic mode), as described above, at various glucose concentrations. The S0.5 of glucokinase for glucose at different concentration of each compound of interest is calculated from the following modified version of the Michaelis-Menten equation, V=Vmax [S]^n/(S0.5^n+[S]^n), where [S] is the glucose concentration and n is the Hill coefficient (taken as 1.7 to account for the sigoidal kinetics of glucokinase with respect to glucose). The S0.5 is plotted against the log of the compound concentration. The change in the S0.5 of glucokinase (ΔS0.5) for glucose is calculated by subtracting the S0.5 at each concentration of the compound from the S0.5 in the vehicle control. The ΔS0.5 is then normalized to a percent scale, where the S0.5 in the vehicle control is set to 0% and 0 mM glucose is set to 100%. The % ΔS0.5 is then plotted against the log of the compound concentration. The EC50 and Emax of % change in S0.5 is obtained from the sigoidal fit of the data. Detailed protocol has been described in our copending application no. 409/CHE/2007 which is incorporated herein by reference. Characterization data of some representative glucokinase activators of the present disclosure, which are illustrative but not limiting, are given in table I below.

In another series the test system is primary rat hepatocytes. Briefly: Glycogen synthesis in primary rat hepatocytes. It counts as cell-based. The following applies: Hepatocyte, 10 μM concentration, primary hepatocytes from male Wistar rats, D-[U14C]-glucose, 3 hours, read-out: Glycogen synthesis, fold increase over DMSO control. On the procedure:
The glycogen deposition assay was carried out with few modifications in the original protocol as described in “Biochem J. 1990 Feb. 15; 266(1): 91-102”. In brief, primary hepatocytes were collected from male Wistar rats, and were seeded in a 48-well plate at a density of 150,000 cells/well in Minimal Essential Medium (MEM) containing 10% foetal calf serum (FCS) 100 nM insulin and 10 nM dexamethasone. followed by incubation for 4 hours at 37° C. The medium was replaced with fresh MEM containing 10% FCS and 10 nM dexamethasone and the cells were further incubated for 16 hours at 37° C. Following day, the medium was replaced with fresh MEM (serum-free) containing 2 μCi/ml of D-[U^14C]-glucose in the presence of the test compound. Hepatocytes were incubated for 3 hours at 37° C. followed by washing with 150 mM NaCl. Cells were lysed with 0.1 N NaOH, and the lysate was precipitated with 80% w/v trichloroacetic acid (TCA). Cell debris was pelleted by centrifugation, the supernatant was removed, and the glycogen was precipitated with 66% ethanol followed by drying overnight. Samples were dissolved in MiliQ water and transferred to 96 well reading plate, 100 μL scintillant was added per well and the plate was read in scintillation counter (MicroBeta Trilux, Perkin Elmer). Data was expressed as fold increase in glycogen synthesis over DMSO control (untreated hepatocytes).

For series [2] the following is noted: animal efficacy models; PSN-GK1 at higher dose; cited from earlier work.

purified human recombinant GK, sequence (P35557 whole entry): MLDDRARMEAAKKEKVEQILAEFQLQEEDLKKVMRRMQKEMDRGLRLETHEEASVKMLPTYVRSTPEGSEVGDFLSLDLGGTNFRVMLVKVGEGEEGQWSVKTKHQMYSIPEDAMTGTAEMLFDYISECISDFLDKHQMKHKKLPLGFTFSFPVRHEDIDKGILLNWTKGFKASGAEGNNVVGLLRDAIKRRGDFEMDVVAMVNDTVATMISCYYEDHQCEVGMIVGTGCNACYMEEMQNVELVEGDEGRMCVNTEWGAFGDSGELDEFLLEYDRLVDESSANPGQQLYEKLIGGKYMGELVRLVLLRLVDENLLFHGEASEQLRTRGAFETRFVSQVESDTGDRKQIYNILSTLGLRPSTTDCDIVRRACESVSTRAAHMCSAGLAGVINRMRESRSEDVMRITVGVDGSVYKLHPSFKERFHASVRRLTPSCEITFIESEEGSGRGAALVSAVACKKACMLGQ

In the case of `O=C(O)c1cccc(Oc2cnc(NC(=O)C(O[C@H]3CCOC3)c3ccc(S(=O)(=O)C4CC4)cc3)s2)c1` (single isomer, unassigned; (+)) [Example G25A], in series [1], the EC50 was 0.2 µM and the maximum response (Emax) was 95%. For the same molecule, the fold induction at 10 µM with primary rat hepatocytes was more than 2.5.
Consider `COc1cc(Oc2cnc(NC(=O)C(OC3CCOCC3)c3ccc(S(=O)(=O)C4CC4)cc3)s2)ccc1C(=O)O` (single isomer, unassigned; (+)) [Example G9A, (+)4-[2-[[2-(4-cyclopropylsulfonylphenyl)-2-tetrahydropyran-4-yloxy-acetyl]amino]thiazol-5-yl]oxy-2-methoxy-benzoic acid], for which, in series [1], the EC50 worked out at 0.27 µM and the Emax stood at 92%. In addition, the fold induction at 10 µM in the series with primary rat hepatocytes was more than 2.5.
As for `Cc1ccc(Oc2cnc(NC(=O)C(OC3CCOCC3)c3ccc(S(=O)(=O)C4CC4)cc3)s2)cc1C(=O)O` (single isomer, unassigned; (+)) [Example G10A, (+)5-[2-[[2-(4-cyclopropylsulfonylphenyl)-2-tetrahydropyran-4-yloxy-acetyl]amino]thiazol-5-yl]oxy-2-methyl-benzoic acid], in series [1], the EC50 came to 0.23 µM and the maximum response (Emax) was 93%. Moreover, in the series with primary rat hepatocytes, the fold induction at 10 µM is more than 2.5.
Consider `O=C(Nc1ncc(Oc2cccc(CO)c2)s1)C(OC1CCOCC1)c1ccc(S(=O)(=O)C2CC2)cc1` (single isomer, unassigned; (+)) [Example G20A, (+)2-(4-cyclopropylsulfonylphenyl)-N-[5-[3-(hydroxymethyl)phenoxy]thiazol-2-yl]-2-tetrahydro-pyran-4-yloxy-acetamide], for which, in series [1], the EC50 was 0.064 µM and the maximal effect (Emax) came out at 93%. For the same molecule, in the series on primary rat hepatocytes, the fold induction at 10 µM was more than 2.5.
Regarding `O=C(Nc1ncc(F)s1)[C@H](CC1CCOCC1)c1ccc(S(=O)(=O)C2CC2)cc1` [PSN-GK1], in series [2], the “Hypoglycemia in animal studies” value was “hypoglycemic potential”.
Turning to `O=C(O)c1cccc(Oc2cnc(NC(=O)C(O[C@@H]3CCOC3)c3ccc(S(=O)(=O)C4CC4)cc3)s2)c1` (single isomer, unassigned; (+)) [Example G21A], the fold induction at 10 µM in the series on primary rat hepatocytes is more than 2.5.
Regarding `Cc1cc(Oc2cnc(NC(=O)C(OC3CCOCC3)c3ccc(S(=O)(=O)C4CC4)cc3)s2)ccc1C(=O)O` (single isomer, unassigned; (+)) [Example G1A, (+)4-[2-[[2-(4-cyclopropylsulfonylphenyl)-2-tetrahydropyran-4-yloxy-acetyl]amino]thiazol-5-yl]oxy-2-methyl-benzoic acid], in series [1], the concentration giving a half-maximal response (EC50) worked out at 0.087 µM and the Emax turned out to be 97%. In the series with primary rat hepatocytes, the fold induction at 10 µM is more than 2.5.
On the same counts, the results for `O=C(O)c1ccc(NC(=O)C(Oc2ccc(F)cc2F)c2ccc(S(=O)(=O)C3CC3)cc2)nc1` (single isomer, unassigned; (-)) [Example G15A, (−)6-[[2-(4-cyclopropylsulfonylphenyl)-2-(2,4-difluorophenoxy)acetyl]amino]pyridine-3-carboxylic acid] are 0.48 µM, 90% and more than 2.5.
As for `O=C(O)c1cccc(Oc2cnc(NC(=O)C(OC3CCOCC3)c3ccc(S(=O)(=O)C4CCCC4)cc3)s2)c1` (single isomer, unassigned; (+)) [Example G26A, (+)-3-[2-[[2-(4-cyclopentylsulfonylphenyl)-2-tetrahydropyran-4-yloxy-acetyl]amino]thiazol-5-yl]oxybenzoic acid], in series [1], the EC50 is 0.18 µM and the Emax was determined as 94%. Further, the fold induction at 10 µM in the series with primary rat hepatocytes is more than 2.5.
On to `O=C(O)c1cc(Oc2cnc(NC(=O)C(OC3CCOCC3)c3ccc(S(=O)(=O)C4CC4)cc3)s2)ccc1F` (single isomer, unassigned; (+)) [Example G16A, (+)5-[2-[[2-(4-cyclopropylsulfonylphenyl)-2-tetrahydropyran-4-yloxy-acetyl]amino]thiazol-5-yl]oxy-2-fluoro-benzoic acid], for which, in series [1], the concentration for a half-maximal effect (EC50) was 0.27 µM and the Emax is 93%. In addition, the fold induction at 10 µM in the series with primary rat hepatocytes is more than 2.5.
On to `CCOC(=O)c1cccc(Oc2cnc(NC(=O)C(OC3CCOCC3)c3ccc(S(=O)(=O)C4CC4)cc3)s2)c1` (single isomer, unassigned; (+)) [Example G19A, (+)ethyl 3-[2-[[2-(4-cyclopropylsulfonylphenyl)-2-tetrahydropyran-4-yloxy-acetyl]amino]thiazol-5-yl]oxybenzoate], for which, in series [1], the EC50 turned out to be 0.1 µM and the Emax was found to be 95%.
Consider `O=C(Nc1nccs1)C(OC1CCOCC1)c1ccc(S(=O)(=O)C2CC2)cc1` (stereo not shown) [Example A-1, 2-(4-Cyclopropylsulfonylphenyl)-2-tetrahydropyran-4-yloxy-N-thiazol-2-yl-acetamide], for which, in series [1], the EC50 was found to be 1.4 µM and the maximum response (Emax) came to 89%.
The like results for `COc1ccc2nc(NC(=O)C(OC3CCOCC3)c3ccc(S(=O)(=O)N4CCOCC4)cc3)sc2n1` (stereo not shown) [Example A-12, N-(5-methoxythiazolo[5,4-b]pyridin-2-yl)-2-(4-morpholinosulfonylphenyl)-2-tetrahydropyran-4-yloxy-acetamide] were, in that order, 0.66 µM and 88%.
For the molecule `O=C(O)c1ccc(NC(=O)C(Oc2ccc(Cl)cc2)c2ccc(S(=O)(=O)C3CC3)cc2)nc1` (stereo not shown) [Example B-58, 6-[[2-(4-chlorophenoxy)-2-(4-cyclopropylsulfonylphenyl)acetyl]amino]pyridine-3-carboxylic acid], in series [1], the EC50 is 0.74 µM and the Emax was found to be 89%.
As for `O=C(O)Cc1nc(NC(=O)C(OC2CCOCC2)c2ccc(S(=O)(=O)N3CCCCC3)cc2)sc1Cl` (stereo not shown) [Example B-12, 2-[5-chloro-2-[[2-[4-(1-piperidylsulfonyl)phenyl]-2-tetrahydropyran-4-yloxy-acetyl]amino]thiazol-4-yl]acetic acid], in series [1], the EC50 was 1.12 µM and the maximal response (Emax) was determined as 90%.
`O=C(O)c1cccc(Oc2cnc(NC(=O)C(OC3CCOCC3)c3ccc(S(=O)(=O)C4CC4)cc3)s2)c1` (single isomer, unassigned; (+)) [Example G8A, (+)3-[2-[[2-(4-cyclopropylsulfonylphenyl)-2-tetrahydropyran-4-yloxy-acetyl]amino]thiazol-5-yl]oxybenzoic acid]: the 50% effective concentration (EC50) in series [1] came out at 0.19 µM. Also, the fold induction at 10 µM in the series on primary rat hepatocytes is more than 2.5.
Consider `O=C(Nc1ncc(F)s1)C(OC1CCOCC1)c1ccc(S(=O)(=O)N2CCOCC2)cc1` (stereo not shown) [Example A-11, N-(5-fluorothiazol-2-yl)-2-(4-morpholinosulfonylphenyl)-2-tetrahydropyran-4-yloxy-acetamide], for which, in series [1], the EC50 was 0.95 µM and the maximum response (Emax) was 85%.
On to `O=C(O)c1cccc(Oc2cnc(NC(=O)C(OC3CCOCC3)c3ccc(S(=O)(=O)C4CCCC4)nc3)s2)c1` (single isomer, unassigned; (+)) [Example G27A, (+)-3-[2-[[2-(6-cyclopentylsulfonyl-3-pyridyl)-2-tetrahydropyran-4-yloxy-acetyl]amino]thiazol-5-yl]oxybenzoic acid], for which, in series [1], the 50% effective concentration (EC50) is 0.13 µM and the Emax was 95%. Also, the fold induction at 10 µM with primary rat hepatocytes is more than 2.5.
